Laboratory results: paper PMC11381307 (Frontiers in Pharmacology, 2024)

Tests used:
OATP1B1 = biological target: T1, OATP1B1 (Homo sapiens, UniProt Q9Y6L6); test: Inhibitory effect of seven drugs on OATP1B1-mediated E217βG uptake; type: cell-based; details: 50 μM or 50 μg/mL; N = 2
T1 construct: host or cells: HEK293
T1 sequence (Q9Y6L6 1-691): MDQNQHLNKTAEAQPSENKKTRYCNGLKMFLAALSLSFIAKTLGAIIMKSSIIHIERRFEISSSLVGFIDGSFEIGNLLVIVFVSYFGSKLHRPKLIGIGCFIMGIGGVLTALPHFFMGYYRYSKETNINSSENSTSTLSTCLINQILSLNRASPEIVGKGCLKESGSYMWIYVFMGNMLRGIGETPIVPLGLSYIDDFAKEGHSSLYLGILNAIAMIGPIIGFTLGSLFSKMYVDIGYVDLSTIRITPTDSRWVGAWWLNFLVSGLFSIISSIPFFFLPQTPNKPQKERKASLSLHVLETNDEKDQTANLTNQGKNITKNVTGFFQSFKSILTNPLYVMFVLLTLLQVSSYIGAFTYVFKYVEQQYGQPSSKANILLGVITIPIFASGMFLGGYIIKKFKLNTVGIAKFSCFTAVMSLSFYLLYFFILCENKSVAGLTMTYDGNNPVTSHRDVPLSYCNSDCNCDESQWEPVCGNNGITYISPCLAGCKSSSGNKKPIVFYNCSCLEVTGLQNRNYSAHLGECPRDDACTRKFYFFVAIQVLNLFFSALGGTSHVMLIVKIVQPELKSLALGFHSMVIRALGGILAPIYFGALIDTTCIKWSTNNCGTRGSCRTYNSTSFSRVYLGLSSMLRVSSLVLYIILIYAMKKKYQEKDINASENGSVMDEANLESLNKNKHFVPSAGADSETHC
Procedure: (§1) Note: the peak area of probe substrate transported by MRP2, OAT3, OATP1B1 or OATP1B3 was determined by LC-MS method. Then, the relative uptake rate of probe substrate in the presence of seven drugs was calculated by using equation 7 or 11. When the relative uptake rate was decreased by more than 50%, indicating the potential inhibitory of drug on the transporter.

OATP1B3 = biological target: T2, OATP1B3 (Homo sapiens, UniProt Q9NPD5); test: Inhibitory effect of seven drugs on OATP1B3-mediated E217βG uptake; type: cell-based; details: 50 μM or 50 μg/mL; N = 2
T2 construct: host or cells: HEK293
T2 sequence (Q9NPD5 1-702): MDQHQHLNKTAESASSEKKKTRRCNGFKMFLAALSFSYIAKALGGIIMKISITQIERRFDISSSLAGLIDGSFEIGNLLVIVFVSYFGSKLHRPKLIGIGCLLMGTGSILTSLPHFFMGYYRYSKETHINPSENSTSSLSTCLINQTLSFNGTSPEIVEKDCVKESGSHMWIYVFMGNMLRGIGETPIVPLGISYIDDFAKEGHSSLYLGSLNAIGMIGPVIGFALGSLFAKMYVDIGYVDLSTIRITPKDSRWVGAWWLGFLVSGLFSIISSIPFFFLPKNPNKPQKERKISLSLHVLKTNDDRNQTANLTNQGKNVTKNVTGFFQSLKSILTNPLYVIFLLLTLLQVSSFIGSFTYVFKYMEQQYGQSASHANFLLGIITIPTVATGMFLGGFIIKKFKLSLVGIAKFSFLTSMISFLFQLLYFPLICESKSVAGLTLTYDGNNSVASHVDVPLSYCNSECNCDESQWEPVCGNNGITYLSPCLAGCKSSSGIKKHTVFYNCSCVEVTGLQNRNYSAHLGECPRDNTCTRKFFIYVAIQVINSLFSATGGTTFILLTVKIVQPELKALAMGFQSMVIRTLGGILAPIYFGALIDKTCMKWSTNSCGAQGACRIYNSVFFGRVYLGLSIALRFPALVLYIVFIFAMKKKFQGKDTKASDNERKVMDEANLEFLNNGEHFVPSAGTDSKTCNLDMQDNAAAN
Procedure: as §1

OAT3 [1] = biological target: T3, OAT3 (Homo sapiens, UniProt Q8TCC7); test: Inhibitory effect of seven drugs on OAT3-mediated ES uptake; type: cell-based; set-up: host or cells: HEK293; details: 50 μM or 50 μg/mL; N = 2
T3 sequence (Q8TCC7 1-542): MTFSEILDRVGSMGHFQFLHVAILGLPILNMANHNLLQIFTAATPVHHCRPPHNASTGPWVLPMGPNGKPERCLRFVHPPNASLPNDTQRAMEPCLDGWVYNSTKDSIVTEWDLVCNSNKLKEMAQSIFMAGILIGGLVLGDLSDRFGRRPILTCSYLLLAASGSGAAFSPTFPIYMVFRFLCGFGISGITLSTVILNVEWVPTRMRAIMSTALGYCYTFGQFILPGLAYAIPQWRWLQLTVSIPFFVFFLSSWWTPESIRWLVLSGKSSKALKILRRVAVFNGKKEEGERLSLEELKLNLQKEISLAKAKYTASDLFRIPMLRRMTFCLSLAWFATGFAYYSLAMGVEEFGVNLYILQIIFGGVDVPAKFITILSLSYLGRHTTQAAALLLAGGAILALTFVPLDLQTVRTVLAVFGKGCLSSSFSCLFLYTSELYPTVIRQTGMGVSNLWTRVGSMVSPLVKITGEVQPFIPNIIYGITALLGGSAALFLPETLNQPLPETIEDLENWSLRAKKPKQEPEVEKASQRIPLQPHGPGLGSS
Procedure: as §1

MRP2 = MRP2 (Homo sapiens, UniProt Q92887); test: Inhibitory effect of seven drugs on MRP2-mediated E217βG uptake (vesicles); type: biochemical; set-up: purchased GenoMembrane (Tokyo, Japan) Product No. 0001; details: 50 μM or 50 μg/mL; N = 2
Procedure: Briefly, 10 μL of vesicle membranes and 5 μL of Reagent G were mixed and pre-incubated with 10 μL of the compounds or Buffer A2 (used as no compound-treatment control [NC]) at 37°C for 5 min. […] The two mixtures were mixed before the incubation and then incubated for an additional 5 min. […]
Regarding the inhibition assay, the methods used to calculate the transported activity and UR were similar to those used for the substrate assay. However, please refer to the SLC inhibition assay for the equations for calculating the UR percentages relative to the NC and IC50 values of compounds on MRP2 activity and MRP2-mediated MPAG transport.
as §1

UGT = test: Human hepatocyte UGT induction study, conversion of MPA to MPAG; type: cell-based; details: for formation of MPAG, % of NC (Mean): 96 h treatment
Procedure: Cryopreserved human hepatocytes were recovered in a pre-warmed incubation medium, diluted to a viable cell density (∼0.7 × 10^6 cells/mL) using a plating medium, followed by the addition of 100 μL hepatocytes into each well of a collagen I-coated 96-well plate. The cell monolayer was formed after an overnight incubation period at 37°C under 5%CO2. The plating medium was then replaced with an incubation medium for further culture. On the second day, an incubation medium containing different concentrations of either compound, the inducer omeprazole (final concentration of 50 μM), or vehicle (0.1% [v/v] dimethyl sulfoxide [DMSO]). […] At the end of the incubation period, the medium was replaced with a substrate for UGT and MPA. Following a further incubation of 15 or 30 min at 37°C under 5% CO2, 100 μL of the reaction medium was transferred to 400 μL of ice-cold methanol containing internal standard (IS) to terminate the reaction. Finally, the supernatant was collected after centrifugation at 4,000 rpm for 10 min and analyzed for glucuronide formation using liquid chromatography-mass spectrometry (LC-MS).
The formation of glucuronide metabolites, as determined with LC-MS, was used to calculate the formation rate linked to enzyme activity according to Equation 1. Formation rate pmol/10^6 cells/min=amount of glucuronide metabolites formation pmol/number of cells 10^6 cells×incubation time min (1)
The percentage of enzyme activity relative to the NC (%) was determined using Equation 2. Relative enzyme activity % of NC=formation rate in the compound−treated group/that in NC×100 (2)

human OAT1 = biological target: T4, human OAT1 (Homo sapiens, UniProt Q4U2R8)
T4 sequence (Q4U2R8 1-563): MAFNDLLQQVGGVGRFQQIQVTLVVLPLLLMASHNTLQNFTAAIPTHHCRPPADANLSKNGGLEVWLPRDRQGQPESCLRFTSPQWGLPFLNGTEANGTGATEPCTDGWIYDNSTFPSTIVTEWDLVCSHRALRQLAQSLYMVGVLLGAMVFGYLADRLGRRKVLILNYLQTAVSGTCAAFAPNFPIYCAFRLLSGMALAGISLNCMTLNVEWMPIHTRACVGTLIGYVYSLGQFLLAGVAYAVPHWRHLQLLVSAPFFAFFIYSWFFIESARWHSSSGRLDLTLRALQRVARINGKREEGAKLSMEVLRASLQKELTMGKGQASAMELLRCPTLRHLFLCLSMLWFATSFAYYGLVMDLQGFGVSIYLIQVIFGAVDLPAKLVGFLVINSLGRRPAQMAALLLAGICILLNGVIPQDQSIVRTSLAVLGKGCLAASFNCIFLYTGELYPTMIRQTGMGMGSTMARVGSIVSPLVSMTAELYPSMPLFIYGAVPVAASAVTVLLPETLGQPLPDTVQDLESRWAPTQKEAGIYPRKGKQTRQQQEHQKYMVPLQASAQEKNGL

OAT3 [2] = biological target: T3, OAT3; test: Transporter substrate study using HEK293-OAT3 cells; details: for uptake ratio (UR) mediated by OAT3: 10 μM
[3] = cited from earlier work
[4] = criterion UR ≥2.0 and inhibition ≥50%

MRP2, sequence (Q92887 whole entry): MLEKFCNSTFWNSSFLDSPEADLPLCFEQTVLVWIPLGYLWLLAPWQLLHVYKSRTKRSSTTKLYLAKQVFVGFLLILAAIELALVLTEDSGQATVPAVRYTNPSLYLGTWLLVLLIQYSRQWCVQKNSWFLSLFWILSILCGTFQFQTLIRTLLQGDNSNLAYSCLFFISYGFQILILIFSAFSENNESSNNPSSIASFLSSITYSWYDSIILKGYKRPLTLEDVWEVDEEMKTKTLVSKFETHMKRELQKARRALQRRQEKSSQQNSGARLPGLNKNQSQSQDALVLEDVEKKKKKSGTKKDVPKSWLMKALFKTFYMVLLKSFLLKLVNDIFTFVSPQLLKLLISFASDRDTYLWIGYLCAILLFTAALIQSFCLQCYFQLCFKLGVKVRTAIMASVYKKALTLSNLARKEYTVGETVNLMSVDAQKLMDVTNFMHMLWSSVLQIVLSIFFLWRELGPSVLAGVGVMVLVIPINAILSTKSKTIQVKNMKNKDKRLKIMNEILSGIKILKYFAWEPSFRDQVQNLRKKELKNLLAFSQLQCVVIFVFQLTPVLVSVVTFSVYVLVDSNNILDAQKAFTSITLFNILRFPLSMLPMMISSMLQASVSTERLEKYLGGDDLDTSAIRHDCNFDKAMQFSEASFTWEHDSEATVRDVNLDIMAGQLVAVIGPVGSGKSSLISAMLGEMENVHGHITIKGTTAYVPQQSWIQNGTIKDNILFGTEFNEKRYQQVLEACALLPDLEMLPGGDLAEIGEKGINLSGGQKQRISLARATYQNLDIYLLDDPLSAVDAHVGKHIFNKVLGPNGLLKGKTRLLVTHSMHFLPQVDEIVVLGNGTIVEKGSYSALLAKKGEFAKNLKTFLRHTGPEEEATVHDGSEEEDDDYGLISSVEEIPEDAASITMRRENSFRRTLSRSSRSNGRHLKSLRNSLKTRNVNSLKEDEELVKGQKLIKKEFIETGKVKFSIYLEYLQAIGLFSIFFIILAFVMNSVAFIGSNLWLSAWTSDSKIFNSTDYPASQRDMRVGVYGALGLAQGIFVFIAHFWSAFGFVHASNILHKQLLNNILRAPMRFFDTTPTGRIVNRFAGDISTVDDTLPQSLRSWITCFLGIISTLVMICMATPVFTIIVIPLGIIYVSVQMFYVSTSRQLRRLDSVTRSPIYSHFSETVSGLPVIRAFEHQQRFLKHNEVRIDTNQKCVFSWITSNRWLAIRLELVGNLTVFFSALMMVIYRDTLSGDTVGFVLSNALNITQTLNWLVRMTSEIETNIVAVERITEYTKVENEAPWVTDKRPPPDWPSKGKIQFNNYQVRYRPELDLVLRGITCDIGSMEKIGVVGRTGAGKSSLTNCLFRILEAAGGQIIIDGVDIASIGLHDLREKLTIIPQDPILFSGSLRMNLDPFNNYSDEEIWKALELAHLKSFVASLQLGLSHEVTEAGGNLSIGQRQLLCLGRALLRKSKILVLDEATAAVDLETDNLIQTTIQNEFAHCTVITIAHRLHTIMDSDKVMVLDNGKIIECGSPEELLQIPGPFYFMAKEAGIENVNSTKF

## CCCCC[C@H](O)/C=C/[C@H]1[C@H](O)CC(=O)[C@@H]1CCCCCCC(=O)O [Alprostadil, alprostadil]
OATP1B1
  Relative net uptake rate (% of NC), Mean, OATP1B1-mediated E217βG uptake: 33.6 % of NC
OATP1B3
  Relative net uptake rate (% of NC), Mean, OATP1B3-mediated E217βG uptake: 59.6 % of NC
OAT3 [1]
  Relative net uptake rate (% of NC), Mean, OAT3-mediated ES uptake: 52.6 % of NC
MRP2
  Relative net uptake rate (% of NC), Mean, MRP2-mediated E217βG uptake: 137 % of NC

## C[C@]12C=CC(=O)C=C1CC[C@@H]1[C@@H]2[C@@H](O)C[C@@]2(C)[C@H]1CC[C@]2(O)C(=O)CO [prednisolone]
UGT; 0.5 μM
  formation of MPAG, % of NC (Mean): 101 % of NC
UGT; 1 μM
  formation of MPAG, % of NC (Mean): 114 % of NC
UGT; 5 μM
  formation of MPAG, % of NC (Mean): 106 % of NC
UGT; 10 μM
  formation of MPAG, % of NC (Mean): 101 % of NC
UGT; 50 μM
  formation of MPAG, % of NC (Mean): 126 % of NC
UGT; 100 μM
  formation of MPAG, % of NC (Mean): 129 % of NC
UGT; 96 h incubation of human hepatocytes
  change in MPAG formation from MPA (in words): slight increase

## COc1c(C)c2c(c(O[C@@H]3O[C@H](C(=O)O)[C@@H](O)[C@H](O)[C@H]3O)c1C/C=C(\C)CCC(=O)O)C(=O)OC2 [MPAG, 7-O-mycophenolic acid glucuronide]
Human OAT1; 0.5, 1, and 10 μM
  uptake ratio (UR) mediated by OAT1: less than 2.0
Human OAT1; [4]
  substrate of OAT1 (in words): not a substrate of OAT1
OAT3 [2]; following incubation with probenecid
  uptake ratio (UR) mediated by OAT3: 1.19
OAT3 [2]; without inhibitor
  uptake ratio (UR) mediated by OAT3: 2.47
OAT3 [2]; [4]
  substrate of OAT3 (in words): weak substrate for OAT3

## COc1c(C)c2c(c(O)c1C/C=C(\C)CCC(=O)OCCN1CCOCC1)C(=O)OC2 [MMF, mycophenolate mofetil]
[3]; ref van Schaik et al., 2009
  fraction of the absorbed drug eliminated in the urine: approximately 87%

## COc1ccnc(C[S+]([O-])c2nc3ccc(OC(F)F)cc3[nH]2)c1OC (stereo not shown) [Pantoprazole, pantoprazole]
OATP1B1
  Relative net uptake rate (% of NC), Mean, OATP1B1-mediated E217βG uptake: 115 % of NC
OATP1B3
  Relative net uptake rate (% of NC), Mean, OATP1B3-mediated E217βG uptake: 67.7 % of NC
OAT3 [1]
  Relative net uptake rate (% of NC), Mean, OAT3-mediated ES uptake: 87.2 % of NC
MRP2
  Relative net uptake rate (% of NC), Mean, MRP2-mediated E217βG uptake: 134 % of NC

## COc1c(C)c2c(c(O)c1C/C=C(\C)CCC(=O)O)C(=O)OC2 [MPA, mycophenolic acid]
[3]; similar dose of MMF, ref Shaw et al., 2003
  exposure lower in the early phase after transplantation than in the stable period: 30%–50%
